How the values were obtained:
[1] = test system: aldosterone; test: Serum aldosterone by radioimmunoassay in treated rats; assay type: in vivo, Sprague-Dawley rats; conditions: 2 mg/kg intraperitoneally once daily for eight days; for ALDOS-STERONE: serum, control 685
Experimental: (§1) In each experiment, at least six rats per treatment group were used. After eight days of treatment, the rats were sacrificed.
(§2) The level of steroids in the rats was measured by radioimmunoassay from organic extracts of the collected serum. The levels of corticosterone (a glucocorticoid in rats) and testosterone were measured by radioimmunoassay using antibodies from Endocrine Sciences (Tarlana, Calif., USA) under conditions described by the supplier. The level of plasma ACTH was measured by radioimmunoassay using the method of Crousos, et al., New Engl. J. Med. 310:622 (1984). The level of aldosterone was measured by radioimmunoassay using a kit from Diagnostics Products Corp. (Los Angeles, Calif., USA).

[2] = test system: testosterone; test: Serum testosterone by radioimmunoassay in treated rats; assay type: in vivo, Sprague-Dawley rats; conditions: 2 mg/kg intraperitoneally once daily for eight days; for TESTOSTERONE: serum, control 4.50
Experimental: as §1, §2

[3] = test system: plasma ACTH; test: Plasma ACTH by radioimmunoassay in treated rats; assay type: in vivo, Sprague-Dawley rats; conditions: 2 mg/kg intraperitoneally once daily for eight days; for ACTH: plasma, control 28.0
Experimental: as §1, §2

[4] = test system: corticosterone (a glucocorticoid in rats); test: Assay for determining the inhibition of glucocorticoids: serum corticosterone by radioimmunoassay; assay type: in vivo, Sprague-Dawley rats; conditions: 2 mg/kg intraperitoneally once daily for eight days; for CORTICOSTERONE: serum, control 161
Experimental: as §1, §2

[5] = target: 18 Kd peripheral benzodiazepine receptor protein; test: Benzodiazepine radioligand binding assay ([3H]PK 11195) in adrenal mitochondria; parameters: species or system rat
Experimental: See, Garnier, et al., Endocrinology 132:444 (1993). Mitochondria were prepared as described in Krueger, et al., J. Biol. Chem. 265:15015 (1990). Mitochondria ([…] of protein) were resuspended in phosphate buffered saline (PBS) and [^3H]PK 11195 (New England Nuclear, Wilmington, Del., USA). Binding studies were performed at 4° C. in a final incubation volume of 0.3 ml, using radioligand in the concentration range of 0.019-20.00 nM and 200 fold excess of unlabeled PK 11195 (Research Biochemicals, Natick, Mass., USA), as described in Garnier, et al., Endocrinology 132:444 (1993) and Garnier, et al., Mol. Pharm. 45:201 (1994). After 120 min. incubation time, the assay was stopped by filtration through Whatman GF/C filters and washed with 15 ml ice-cold PBS. Radioactivity trapped on the filters were determined by liquid scintillation counting at 50% counting efficiency. The dissociation constant (Kd) and the number of binding sites (Bmax) were determined by […] analysis of the data using the ligand™ program (Kell, V.4.0, Biosoft, Inc.). See Munson, et al., Anal. Biochem. 107:220 (1980).

[6] = test system: peripheral benzodiazepine receptor mRNA; test: mRNA expression of benzodiazepine receptor in adrenal tissue (RNA blot, PBR cDNA probe); parameters: species or system rat; conditions: adrenal tissue total RNA, densiometric analysis
Experimental: mRNA Expression of Benzodiazepine Receptor The ginkgolide induced decrease in mRNA expression of the benzodiazepine receptor was also confirmed. Total cellular RNA from adrenal tissue was isolated by the acid guanidinium thiocyanate-phenol-chloroform extraction method (Chomczynski, et al., Anal. Biochem. 162:156-159 (1987)) using the RNAzol B reagent (Tel-Test Inc., Friendswood, Texas, USA). RNA electrophoresis transfer, probe labelling, and membrane hybridization were performed as previously described in Dym, et al., Endocrinology 128:1167-1176 (1991). RNA was size-fractionated by electrophoresis and transferred to derivatized nylon membranes (Nytran Plus, Schleicher & Schuell, Keene, New Hampshire, USA). The blots were then hybridized against the [^32p] cDNA probe for PBR labelled by the random priming technique. The 781 base-pair probe for PBR mRNA used was prepared as previously described in Garnier, et al., Endocrinology 132:444-458 (1993). Screen enhanced autoradiography was performed by exposing Kodak X-OMAT AR films to the blots at −80° C for 48 hours. Densiometric analysis of the spots was performed as described above.

Kd ([5]; dissociation constant of radioligand [3H]PK 11195 in adrenal mitochondria after treatment with the substance, 4° C., 120 min, control 1.7)	decrease of expression of the 18 Kd peripheral benzodiazepine receptor protein ([5]; from Bmax versus control, adrenal mitochondria)	Bmax ([5]; number of [3H]PK 11195 binding sites in adrenal mitochondria after treatment with the substance, control 11.2)	SMILES	effect on serum levels of aldosterone [1]	ALDOS-STERONE [1]	effect on serum levels of testosterone [2]	TESTOSTERONE [2]	effect on ACTH release [3]	ACTH [3]	effect on the level of corticosterone in the rats [4]	CORTICOSTERONE [4]	reduction of peripheral benzodiazepine receptor mRNA expression [6]
1.3 nM	50%	5.6 pmol/mg	C[C@@H]1C(=O)O[C@H]2C[C@@]34[C@H]5C[C@@H](C(C)(C)C)[C@]36[C@@H](OC(=O)[C@@H]6O)O[C@@]4(C(=O)O5)[C@]21O [Ginkgolide A, ginkgolide A]	unaffected	638 pg/mL	unaffected	4.75 ng/mL	increase ACTH release	103 pg/mL	decrease	66 ng/mL	–
–	–	–	CC1C(=O)OC2C(O)C34C5CC(C(C)(C)C)C36C(OC(=O)C6O)OC4(C(=O)O5)C12O (centres unmarked) [Ginkgolide B, ginkgolide B]	unaffected	893 pg/mL	unaffected	4.50 ng/mL	increase ACTH release	71.4 pg/mL	decrease	75 ng/mL	85%

— patent publication US20020006955A1, “Ginkgolides for inhibition of membrane expression of benzodiazepine receptors” (priority 1995, published 2002)
